In ChEMBL document CHEMBL3507680, “University of Dundee, Gates Library screen for HepG2 cell viability” one finds cytotoxicity data, which are given here for 102 compounds.

This series is described as follows: Human HepG2 cell viability assay in 384 well format. It counts as toxicity, cell-based. Further details: dose 125 nL, time 70.5 hour; cytotoxicity at 70.5 h: concentration not given beside the values. Particulars: HepG2 cells, read-out: Inhibition.

As to `COc1ccc(CC(=O)N(C)c2cccnc2N(C)C)c(Cl)c1`, the cytotoxicity at 70.5 h was -1.15%.
With `CC(C)(C)n1cc(CNc2ccc(CNS(C)(=O)=O)cc2)cn1` the figure was -8.49%.
In the case of `CN1CCCN(C(=O)c2cccn2-c2ccc3c(c2)OCCO3)CC1`, the cytotoxicity at 70.5 h was -5.24%.
With `O=C(c1cccn1-c1ccc2c(c1)OCCO2)N1CCCC1`, the cytotoxicity at 70.5 h is -11.9%.
Consider `COC(=O)C1CCCN1C(=O)c1ccc(-n2nc(C)cc2C)cc1` (configuration not stated), for which the cytotoxicity at 70.5 h is -4.44%.
For `COc1ccc(N(Cc2ccco2)C(=O)C2CCOC2)cc1F` (configuration not stated) the value was -6.7%.
For the compound `CCOC(=O)C1CSCCN1C(=O)c1ccc(-n2nc(C)cc2C)cc1` (configuration not stated), the cytotoxicity at 70.5 h is 3.47%.
As for `COc1c(CNC(C)C(=O)NC2CCCC2)c(C)nn1C` (configuration not stated), the cytotoxicity at 70.5 h is -6.91%.
For `O=C(Nc1nnn[nH]1)c1ccc(I)c(F)c1` the value was 4.13%; for `CC(=O)N1CCCN(C(=O)NC(C)c2csc3ccccc23)CC1` (configuration not stated), -6.35%.
For `Cc1cccc(NC(=O)N2CCN(Cc3nnc(C(C)C)o3)CC2)c1` the value was -7.45%; for `CCCN1CCC(Nc2nc(C)ns2)CC1`, -8.37%; for `C=C(C)CN1CCC(Nc2nc(C)ns2)CC1`, -0.501%.
Turning to `Cc1c(Cl)ccc2ccc(NC(CO)CO)nc12`, the cytotoxicity at 70.5 h came out at 6.75%.
`Cc1ccc(Cl)c2ccc(NC(CO)CO)nc12`: the cytotoxicity at 70.5 h is 0.998%.
For `Cc1nnc2ccc(C(=O)N3CCSC(C)(C)C3)cn12` the value was 11.4%; for `Cc1nnc(CN(C)Cc2nc3c(s2)CCCC3)o1`, -5.09%.
`CN(Cc1nnc(-c2cccs2)o1)Cc1nc2c(s1)CCCC2`: the cytotoxicity at 70.5 h was -14.1%.
With `CCOCC(=O)N(Cc1ccco1)c1ccc(OC)c(F)c1` the figure was -5.82%; with `CN1CCN(CC(=O)NCc2ccco2)Cc2ccccc21`, -13.5%.
Take `Fc1ccc(-c2nnc(CNC3CCc4ncnn4C3)o2)cc1` (configuration not stated): the cytotoxicity at 70.5 h was -12.1%.
As to `COC(=O)N1CCCC(C(=O)N(C)C)C1` (configuration not stated), the cytotoxicity at 70.5 h is -9.72%.
With `Cc1nc(CN2CCCC(N(C)c3ccc(C#N)cn3)C2)no1` (configuration not stated) the figure was -2.54%; with `NC(=O)NC(=O)CNc1cccc(C(=O)c2ccccc2)c1`, 13.6%.
With `CCNC(=O)NC(=O)CNc1cccc(C(=O)c2ccccc2)c1` the figure was -12.7%; with `CN(C)C(=O)C1CCN(C(=O)c2c[nH]c3cc(Cl)ccc23)CC1`, -8.29%; with `CC(C)(C)C(=O)NCC(=O)NCCc1nc(C(F)(F)F)cs1`, -9.84%.
Turning to `CN(Cc1ccccc1F)C(=O)Cn1cc(NC(=O)C(C)(C)C)cn1`, the cytotoxicity at 70.5 h was 10.7%.
With `O=C(Nc1ccc(-c2nnc[nH]2)cc1)C1CCN1Cc1ccccc1` (configuration not stated) the figure was 14.7%.
With `CCS(=O)(=O)NCC(=O)Nc1cc(CC(C)(C)C)n[nH]1` the figure was 0.46%; with `O=C(NC1CCN(c2ncccc2F)C1)c1cccc(-n2ccnn2)c1` (configuration not stated), -6.27%; with `CC(C)(C)c1nc(CNC(=O)N2CCc3ccccc3C2CO)no1` (configuration not stated), -2.31%.
For `CCc1nc(CNc2ccc(F)cc2I)no1` the value was 2.16%; for `Cc1cc(Cl)ccc1NCc1ccc(C(=O)N(C)C)[nH]1`, -4.01%; for `Cc1cc(Br)ccc1NCc1ccc(C(=O)N(C)C)[nH]1`, 18.2%.
For the compound `CC(c1ccccc1)N(C)C(=O)Cn1cc(NC(=O)C(C)(C)C)cn1` (configuration not stated), the cytotoxicity at 70.5 h is -3.77%.
For `CC(C)N(C)CC(=O)NCCc1nc(C(F)(F)F)cs1` the value was -5.26%.
With `Cc1cnn(CC(C)Nc2nc(C)cc(N(C)C)n2)c1` (configuration not stated) the figure was -6.1%; with `Cc1csc(CCCNC(C)CC(=O)Nc2cccc(C)c2C)n1` (configuration not stated), -4.67%.
As to `Cc1noc(CCCNC(=O)N2CCc3ccccc3C2CO)n1` (configuration not stated), the cytotoxicity at 70.5 h was 14.9%.
On to `CCc1cnc(CCNC(C)CC(=O)Nc2cccc(C)c2C)s1` (configuration not stated), for which the cytotoxicity at 70.5 h is -5.98%.
With `CC(NCC(=O)N(C)C1CC1)c1ccc(S(C)(=O)=O)c(F)c1` (configuration not stated) the figure was -9.06%.
With `O=C(NC1CCN(CC2CC2)C1)c1ccc(C(=O)c2cc[nH]c2)cc1` (configuration not stated) the figure was -9.44%; with `CC(C)c1noc(CS(=O)(=O)CC(=O)NCCOc2ccccc2)n1`, -13.7%; with `COCCCNC(=O)COc1ccccc1C(F)(F)F`, -5.58%.
With `CC(NC(=O)Cn1cccnc1=O)c1ccc(OC(F)(F)F)cc1` (configuration not stated), the cytotoxicity at 70.5 h was -8.28%.
Turning to `CC(Sc1nnc(C2CC2)n1CC(N)=O)c1ccc(F)cc1F` (configuration not stated), the cytotoxicity at 70.5 h is -4.59%.
With `NC(=O)C(NC(=O)c1cc(Cl)c[nH]1)c1ccccc1` (configuration not stated) the figure was -8.05%; with `COc1ccccc1CC(=O)NC(CC(=O)O)c1ccc(C)cc1` (configuration not stated), -6.19%.
With `CC(C)c1noc(CS(=O)(=O)CC(=O)NCC(F)(F)F)n1` the figure was -6.46%; with `Cc1nc(CC(=O)N2CCN(C(C)c3ccccc3F)CC2)cs1` (configuration not stated), -5.6%; with `Cc1ncc(CNC(=O)c2oc3ccccc3c2CN(C)C)s1`, -8.45%.
As for `Cc1cnccc1NC(=O)CCc1ccsc1`, the cytotoxicity at 70.5 h was -13.1%.
For the compound `Cc1ccc(C(=O)NCCNC(=O)N(C)C(C)c2ccccn2)cc1` (configuration not stated), the cytotoxicity at 70.5 h is -2.96%.
Take `Cc1ccc(=O)n(CC(=O)N2CCCC(c3nc(C)c(C)s3)C2)n1` (configuration not stated): the cytotoxicity at 70.5 h is -5.44%.
For `CNc1nc(CNC(=O)Nc2ccccc2OC(C)C)cs1`, the cytotoxicity at 70.5 h was determined as 14%.
Take `COC(=O)[C@H]1CCCCN1C(=O)c1cccc(-n2cccn2)c1`: the cytotoxicity at 70.5 h was -4.76%.
As to `Cc1ccn(-c2ccc(NCc3cccnc3N3CCCCC3)nn2)n1`, the cytotoxicity at 70.5 h was 12.6%.
With `Cn1cc(C(=O)N2CCOc3cc(F)ccc32)ccc1=O` the figure was -7.98%; with `O=c1[nH]c(N2CC(O)C2)nc2c1cnn2-c1ccccc1`, -9.7%.
With `COC(=O)C1(C)CCN(C(=O)NCCc2c(C)[nH]c3ccccc23)C1` (configuration not stated) the figure was -3.86%; with `CC(OCC1CC1)C(=O)NCc1ccc(Cn2ccnc2)cc1` (configuration not stated), -6.63%; with `Cc1noc(C)c1CN1CCCC(CN(C(=O)OC(C)(C)C)C(C)C)C1` (configuration not stated), -3.37%.
With `CCn1c(C)nnc1CN(C)C1CCN(Cc2nccn2C)C1` (configuration not stated) the figure was 3.01%; with `CCOc1ccccc1CSc1nnc(CC2CCS(=O)(=O)C2)n1C` (configuration not stated), -11.4%.
Take `Cn1c(CC2CCS(=O)(=O)C2)nnc1SCCOc1cccc(Cl)c1` (configuration not stated): the cytotoxicity at 70.5 h is -11.2%.
With `O=C(NCc1cccnc1)C1=NN(c2ccccc2)C(=O)CN1` the figure was -13.9%; with `COCc1ccc(CNC(=O)C2=NN(c3ccccc3)C(=O)CN2)cc1`, -12.2%.
For `O=C(NCc1cc[nH]n1)NCC(c1ccco1)N1CCCC1` (configuration not stated), the cytotoxicity at 70.5 h is -13.5%.
For `O=C(c1ccn(-c2ccccc2Cl)n1)N1CCSCC1` the value was -14.1%; for `CCS(=O)(=O)NCCNC(=O)c1cc(Cl)c2c(c1)OCCCO2`, -9.4%.
With `Cc1nn(C)c(N(C)C)c1CNCc1cccc(CN(C)C(C)C)c1` the figure was -9.1%; with `CCn1nc(-c2ccccc2F)ccc1=O`, -8.76%.
As for `Cn1cc(CNCCOc2ccc(F)c(F)c2)c(-c2cccnc2)n1`, the cytotoxicity at 70.5 h was -5.61%.
With `Cc1cccc(CNC(CN2CCN(C)CC2)c2ccccc2)c1` (configuration not stated) the figure was 10.9%; with `CCN(CC)C(=O)CCNc1cncc(-n2nc(C)cc2C)n1`, -1.19%.
For `Cc1ccc(C2CSCCN2C(=O)c2ccc(C(N)=O)cc2)o1` (configuration not stated) the value was -9.63%; for `CC(C)OCCN(Cc1cccc(O)c1)C1CCC(O)CC1` (configuration not stated), -3.81%.
Take `CC(=O)N(Cc1ncc(C)o1)C1CCN(Cc2cccc(C#N)c2)C1` (configuration not stated): the cytotoxicity at 70.5 h was -5.2%.
Take `CC(C)c1csc(C2CCCN(C(=O)c3ncccn3)C2)n1` (configuration not stated): the cytotoxicity at 70.5 h came out at 13%.
With `Cc1csc(C2CCCN(C(=O)c3ccc(=O)n(C)n3)C2)n1` (configuration not stated), the cytotoxicity at 70.5 h was -9.44%.
Take `COc1ccc(CN2CCCCC2CNC(=O)OC(C)(C)C)cc1F` (configuration not stated): the cytotoxicity at 70.5 h is -7.89%.
For `CCCc1n[nH]c(C2CN(CCS(=O)(=O)CC)CCO2)n1` (configuration not stated) the value was -7.9%.
On to `CCCc1n[nH]c(C2CN(CCC(F)(F)F)CCO2)n1` (configuration not stated), for which the cytotoxicity at 70.5 h is -5.18%.
Take `CC(C)c1n[nH]c(C2CN(CCCS(C)(=O)=O)CCO2)n1` (configuration not stated): the cytotoxicity at 70.5 h was -4.2%.
Turning to `Cc1cc(C(=O)N2CCc3nnc(N)cc3C2)c(C)n1-c1ccccc1`, the cytotoxicity at 70.5 h was -1.62%.
With `O=C(NCCc1ccc(Cl)s1)N1CCS(=O)(=O)CC1` the figure was -3.08%; with `O=C(Cc1csc(-c2ccsc2)n1)N1CCN(c2cnccn2)CC1`, -10.1%; with `CNC(=O)CN1CCN(C(=O)c2ccn(C)c(=O)c2)CC1`, 31.2%.
With `Cc1ccc(CNC(=O)NCCCO)cc1` the figure was 19.3%; with `CCn1cnnc1CNC(=O)c1cc(Cl)c(I)cc1OC`, -7.1%.
Turning to `Cc1nn(C)c(C)c1CC(=O)NCc1ccnc(N2CCOCC2)c1`, the cytotoxicity at 70.5 h was -6.63%.
Consider `CCn1cnnc1CNC(=O)c1cc(F)ccc1OC`, for which the cytotoxicity at 70.5 h is -6.76%.
For `CC(NC(=O)NCCCN(C)S(C)(=O)=O)c1ccc(C#N)cc1` (configuration not stated), the cytotoxicity at 70.5 h is -4.16%.
With `CCc1cccc(N2CCC(NC(=O)C3CCCO3)CC2)c1` (configuration not stated) the figure was -3.65%.
For `CN(C)c1cccc(C(=O)N2CCC(c3n[nH]c(C4CC4)n3)CC2)c1` the value was -5.06%; for `CC(C)CN1CCN(C(=O)c2ccn(C)c(=O)c2)CC1`, -9.05%; for `COCc1nc(C(=O)N2CCCC2c2cc(C)no2)cs1` (configuration not stated), -7.8%.
With `CCc1cccc(N2CCC(NC(=O)C3CCOCC3)CC2)c1` the figure was -5.26%; with `CCc1cccc(N2CCC(NC(=O)c3ccoc3C)CC2)c1`, 19.4%; with `CCc1cccc(N2CCC(NC(=O)C3CCC3)CC2)c1`, -6.88%.
As for `CCC(C)(N)c1nc(=O)c(C(C)C)c(C)[nH]1` (configuration not stated), the cytotoxicity at 70.5 h is -5.63%.
